Experiments:
CYP2C9 = CYP2C9 (Homo sapiens, UniProt P11712); conditions: cited from earlier work
[1] = biological target: mammalian target of rapamycin (mTOR) (Homo sapiens, UniProt P42345); conditions: relative to PI3Kα
CYP3A4/5 [2] = conditions: cited from earlier work
CYP3A4/5 [3] = conditions: cited from earlier work; remark: listed apart in the source
PI3Kα = PI3Kα (Homo sapiens, UniProt P42336); conditions: biochemical assays; read-out: half maximal inhibitory concentration (IC50); cited from earlier work
Chain of PI3Kα (P42336 whole entry): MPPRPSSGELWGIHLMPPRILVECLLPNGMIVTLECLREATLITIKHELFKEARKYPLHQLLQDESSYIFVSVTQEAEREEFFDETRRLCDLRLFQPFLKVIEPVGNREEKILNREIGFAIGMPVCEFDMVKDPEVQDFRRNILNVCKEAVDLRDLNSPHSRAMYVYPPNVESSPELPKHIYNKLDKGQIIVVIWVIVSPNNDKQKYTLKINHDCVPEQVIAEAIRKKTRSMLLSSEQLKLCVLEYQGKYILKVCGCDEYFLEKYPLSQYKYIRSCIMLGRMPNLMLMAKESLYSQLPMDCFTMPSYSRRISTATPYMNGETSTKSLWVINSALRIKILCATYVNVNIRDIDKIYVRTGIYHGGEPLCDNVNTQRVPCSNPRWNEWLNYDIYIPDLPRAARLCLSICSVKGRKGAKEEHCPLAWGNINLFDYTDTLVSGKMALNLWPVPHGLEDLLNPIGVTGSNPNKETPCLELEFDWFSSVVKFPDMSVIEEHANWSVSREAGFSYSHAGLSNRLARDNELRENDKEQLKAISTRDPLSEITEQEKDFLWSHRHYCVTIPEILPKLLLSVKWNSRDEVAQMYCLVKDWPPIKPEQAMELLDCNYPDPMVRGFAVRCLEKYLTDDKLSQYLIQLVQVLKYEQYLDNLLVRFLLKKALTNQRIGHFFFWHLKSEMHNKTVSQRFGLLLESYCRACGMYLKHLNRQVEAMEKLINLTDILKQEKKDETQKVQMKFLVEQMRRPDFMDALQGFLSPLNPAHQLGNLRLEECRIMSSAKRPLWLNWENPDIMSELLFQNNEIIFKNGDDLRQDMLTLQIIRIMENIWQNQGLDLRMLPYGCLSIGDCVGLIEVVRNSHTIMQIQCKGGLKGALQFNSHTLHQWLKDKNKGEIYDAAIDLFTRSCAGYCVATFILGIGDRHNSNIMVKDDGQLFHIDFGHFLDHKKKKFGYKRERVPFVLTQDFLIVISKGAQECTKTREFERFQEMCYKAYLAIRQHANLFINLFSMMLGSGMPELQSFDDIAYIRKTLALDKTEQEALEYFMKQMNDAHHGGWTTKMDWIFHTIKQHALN
Chain of PI3Kα (P27986 whole entry partner): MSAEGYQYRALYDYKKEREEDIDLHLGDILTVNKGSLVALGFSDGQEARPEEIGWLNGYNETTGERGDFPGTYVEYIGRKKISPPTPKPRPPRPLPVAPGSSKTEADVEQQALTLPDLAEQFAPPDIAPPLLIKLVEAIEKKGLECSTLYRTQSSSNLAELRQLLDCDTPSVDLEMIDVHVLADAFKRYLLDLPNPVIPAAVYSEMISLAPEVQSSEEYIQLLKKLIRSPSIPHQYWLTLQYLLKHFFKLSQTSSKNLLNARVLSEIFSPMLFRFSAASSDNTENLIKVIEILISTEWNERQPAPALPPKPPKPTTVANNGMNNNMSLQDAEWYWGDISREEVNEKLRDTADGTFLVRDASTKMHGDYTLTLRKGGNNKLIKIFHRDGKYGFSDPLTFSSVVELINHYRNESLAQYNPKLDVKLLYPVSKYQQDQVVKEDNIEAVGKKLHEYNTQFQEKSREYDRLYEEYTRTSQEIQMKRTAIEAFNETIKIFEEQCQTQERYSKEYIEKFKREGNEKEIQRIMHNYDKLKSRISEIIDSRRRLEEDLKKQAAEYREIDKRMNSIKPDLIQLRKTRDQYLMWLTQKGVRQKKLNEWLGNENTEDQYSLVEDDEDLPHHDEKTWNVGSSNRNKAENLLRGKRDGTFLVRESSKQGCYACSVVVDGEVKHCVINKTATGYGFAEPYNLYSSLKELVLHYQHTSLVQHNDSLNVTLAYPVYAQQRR

[4] = system: renal cell carcinoma xenograft with mutations in the PTEN gene; conditions: cited from earlier work
[5] = system: downstream signaling of PI3K; conditions: cell lines with hyperactivation of the pathway; cited from earlier work
OCT2 = OCT2 (Homo sapiens, UniProt O15244); conditions: cited from earlier work
Chain of OCT2 (O15244 whole entry): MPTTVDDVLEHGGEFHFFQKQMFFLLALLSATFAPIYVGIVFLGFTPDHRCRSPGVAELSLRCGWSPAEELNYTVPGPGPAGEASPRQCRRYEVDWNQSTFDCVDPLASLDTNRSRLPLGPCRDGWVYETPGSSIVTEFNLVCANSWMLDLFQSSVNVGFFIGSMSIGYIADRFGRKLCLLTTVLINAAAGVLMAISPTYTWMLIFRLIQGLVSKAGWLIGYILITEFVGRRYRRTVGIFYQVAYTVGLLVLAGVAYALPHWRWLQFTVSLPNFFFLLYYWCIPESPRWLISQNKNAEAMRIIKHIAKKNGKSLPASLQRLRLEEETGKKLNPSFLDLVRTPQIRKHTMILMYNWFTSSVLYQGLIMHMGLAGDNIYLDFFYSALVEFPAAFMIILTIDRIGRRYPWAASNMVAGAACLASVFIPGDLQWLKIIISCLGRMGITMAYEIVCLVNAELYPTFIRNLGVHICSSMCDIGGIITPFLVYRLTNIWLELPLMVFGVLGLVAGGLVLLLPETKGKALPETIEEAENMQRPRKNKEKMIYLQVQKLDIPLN

CYP1A2 [6] = biological target: CYP1A2 (Homo sapiens, UniProt P05177); conditions: cited from earlier work
Chain of CYP1A2 (Homo sapiens, UniProt P05177) (P05177 whole entry): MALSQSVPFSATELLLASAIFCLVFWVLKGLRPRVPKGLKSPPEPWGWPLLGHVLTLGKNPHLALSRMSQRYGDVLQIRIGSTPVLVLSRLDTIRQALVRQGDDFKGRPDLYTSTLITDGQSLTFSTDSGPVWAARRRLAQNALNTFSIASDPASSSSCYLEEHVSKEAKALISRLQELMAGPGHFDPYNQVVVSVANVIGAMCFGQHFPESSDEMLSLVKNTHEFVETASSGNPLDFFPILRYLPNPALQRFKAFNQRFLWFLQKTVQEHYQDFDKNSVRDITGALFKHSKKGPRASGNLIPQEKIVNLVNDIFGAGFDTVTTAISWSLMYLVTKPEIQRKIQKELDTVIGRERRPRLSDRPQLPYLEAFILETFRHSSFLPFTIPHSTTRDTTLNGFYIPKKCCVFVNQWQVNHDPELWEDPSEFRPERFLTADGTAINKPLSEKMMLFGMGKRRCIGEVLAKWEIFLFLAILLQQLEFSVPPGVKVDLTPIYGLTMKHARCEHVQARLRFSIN

[7] = system: human breast cancer cells harboring mutations in the PIK3CA gene; conditions: mouse xenograft, PIK3CA-mutated human breast cancer cells; cited from earlier work
CYP2B6 [8] = conditions: cited from earlier work
solid tumors = conditions: cited from earlier work
a range of cell lines = conditions: cited from earlier work
CYP3A4 = CYP3A4 (Homo sapiens, UniProt P08684); conditions: normalized for liver content; cited from earlier work
[9] = cited from earlier work
CYP2C8 = CYP2C8 (Homo sapiens, UniProt P10632); conditions: cited from earlier work
[10] = system: other class I PI3K isoforms; conditions: relative to PI3Kα
[11] = biological target: breast cancer resistance protein (BCRP) (Homo sapiens, UniProt Q9UNQ0); conditions: cited from earlier work
[12] = in vitro metabolism, across test species; cited from earlier work
CYP2C19 = CYP2C19 (Homo sapiens, UniProt P33261); conditions: cited from earlier work
Chain of CYP2C19 (P33261 whole entry): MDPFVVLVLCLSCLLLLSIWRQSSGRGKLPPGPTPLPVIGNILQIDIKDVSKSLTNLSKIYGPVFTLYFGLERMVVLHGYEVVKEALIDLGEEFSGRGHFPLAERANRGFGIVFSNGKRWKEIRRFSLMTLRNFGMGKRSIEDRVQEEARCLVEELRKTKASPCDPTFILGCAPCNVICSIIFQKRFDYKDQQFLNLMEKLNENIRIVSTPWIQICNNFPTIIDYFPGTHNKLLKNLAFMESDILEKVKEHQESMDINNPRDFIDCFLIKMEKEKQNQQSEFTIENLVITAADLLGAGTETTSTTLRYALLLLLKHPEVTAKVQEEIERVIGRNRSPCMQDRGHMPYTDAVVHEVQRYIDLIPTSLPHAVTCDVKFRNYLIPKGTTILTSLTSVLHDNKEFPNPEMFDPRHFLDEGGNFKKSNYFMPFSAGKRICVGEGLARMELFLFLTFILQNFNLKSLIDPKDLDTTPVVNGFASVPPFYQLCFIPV

CYP2B6 [13] = biological target: CYP2B6 (Homo sapiens, UniProt P20813); conditions: cited from earlier work
Chain of CYP2B6 (Homo sapiens, UniProt P20813) (P20813 whole entry): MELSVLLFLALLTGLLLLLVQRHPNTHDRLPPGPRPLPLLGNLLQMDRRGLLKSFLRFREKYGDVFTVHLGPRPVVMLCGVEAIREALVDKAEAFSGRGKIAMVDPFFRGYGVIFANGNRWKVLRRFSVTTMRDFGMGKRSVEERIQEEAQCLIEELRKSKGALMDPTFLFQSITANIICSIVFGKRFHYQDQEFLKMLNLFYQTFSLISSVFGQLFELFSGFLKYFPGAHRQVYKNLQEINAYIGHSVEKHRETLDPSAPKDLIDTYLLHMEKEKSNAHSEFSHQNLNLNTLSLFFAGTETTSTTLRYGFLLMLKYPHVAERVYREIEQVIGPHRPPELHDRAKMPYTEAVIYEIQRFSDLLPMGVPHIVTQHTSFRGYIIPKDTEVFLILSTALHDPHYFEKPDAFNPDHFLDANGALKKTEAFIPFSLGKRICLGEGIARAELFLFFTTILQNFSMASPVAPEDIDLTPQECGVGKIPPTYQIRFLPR

CYP2D6 = CYP2D6 (Homo sapiens, UniProt P10635); conditions: cited from earlier work
Chain of CYP2D6 (P10635 whole entry): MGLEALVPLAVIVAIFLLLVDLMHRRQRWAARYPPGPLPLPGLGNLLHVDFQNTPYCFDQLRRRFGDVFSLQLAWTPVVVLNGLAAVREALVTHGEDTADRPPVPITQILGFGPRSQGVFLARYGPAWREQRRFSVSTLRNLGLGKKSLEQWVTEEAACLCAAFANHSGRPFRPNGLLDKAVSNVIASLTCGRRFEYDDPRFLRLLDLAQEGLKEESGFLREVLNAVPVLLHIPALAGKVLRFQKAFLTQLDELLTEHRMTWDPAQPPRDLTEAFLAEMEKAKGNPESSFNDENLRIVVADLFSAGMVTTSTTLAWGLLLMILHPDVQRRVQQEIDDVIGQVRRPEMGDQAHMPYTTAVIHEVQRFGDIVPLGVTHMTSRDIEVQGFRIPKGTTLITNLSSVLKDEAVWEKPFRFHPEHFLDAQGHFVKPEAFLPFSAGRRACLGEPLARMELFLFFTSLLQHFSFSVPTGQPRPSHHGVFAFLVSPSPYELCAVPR

[14] = system: solid tumors with PIK3CA mutations with or without PTEN loss; conditions: human, in vivo
Description: The primary objective of the study is to evaluate the safety, feasibility, and pharmacokinetic impact of intrasubject modulated dosing for serabelisib when co-administered with a study ISD in a pilot cohort of subjects with solid tumors with PIK3CA mutations with or without PTEN loss. […] For the expansion cohort, nab-paclitaxel will also be administered with serabelisib when co-administered with a study ISD. […] FIG. 4 depicts a representation of the study cohorts of the clinical trial using serabelisib in combination with an insulin suppressing diet and nab-paclitaxel in subjects with cancer.
Cohort 1a (Dose Modification): The primary objective of the study is to evaluate the safety, compliance, and pharmacokinetic (PK) impact of intrasubject modulated dosing for serabelisib in combination with a Study ISD in a pilot cohort. […] Endpoints include: ORR, defined as the proportion of subjects who have best overall response of either CR or PR, as determined by each site; Progression free survival (PFS), defined as the time from date of first dose of Study Drug (Visit 1) to the date of first evidence of disease progression or death from any cause (whichever occurs first); Overall survival (OS) and landmark survival; Duration of response (DoR); and Disease control rate (DCR; CR+PR+stable disease [SD]). […]

CYP1A2 [15] = conditions: cited from earlier work
[16] = biological target: organic cation transporter (OCT) 1 (Homo sapiens, UniProt O15245); conditions: cited from earlier work
Chain of organic cation transporter (OCT) 1 (O15245 whole entry): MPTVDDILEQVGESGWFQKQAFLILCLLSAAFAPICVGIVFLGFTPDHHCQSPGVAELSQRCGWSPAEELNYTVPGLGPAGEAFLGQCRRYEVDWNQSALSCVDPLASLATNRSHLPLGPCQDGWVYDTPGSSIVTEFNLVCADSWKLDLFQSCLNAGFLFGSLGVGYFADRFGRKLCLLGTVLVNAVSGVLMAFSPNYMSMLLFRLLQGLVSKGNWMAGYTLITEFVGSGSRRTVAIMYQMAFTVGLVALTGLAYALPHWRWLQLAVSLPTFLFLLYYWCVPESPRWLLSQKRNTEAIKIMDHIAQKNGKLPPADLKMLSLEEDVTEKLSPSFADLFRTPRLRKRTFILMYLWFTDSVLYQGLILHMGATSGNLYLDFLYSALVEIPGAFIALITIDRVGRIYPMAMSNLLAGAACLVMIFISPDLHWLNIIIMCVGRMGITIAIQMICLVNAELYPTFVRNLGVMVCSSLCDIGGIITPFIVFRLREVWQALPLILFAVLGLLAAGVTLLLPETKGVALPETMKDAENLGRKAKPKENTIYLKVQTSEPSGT

[17] = oral administration, various animal species

## Nc1nc2cc(-c3ccc4ncc(C(=O)N5CCOCC5)n4c3)ccc2o1 [serabelisib, 6-(2-Aminobenzo[d]oxazol-5-yl) imidazo[1,2-a]pyridine-3-yl morpholino methanone]
CYP2C9
  inhibition of CYP2C9: low potential for inhibition
[1]
  selectivity over mTOR: > 50 fold
CYP3A4/5 [2]
  induction of CYP3A4/5 activity: does not induce
CYP3A4/5 [3]
  inhibition of CYP3A4/5: low potential for inhibition
PI3Kα
  IC50: 0.02 µM
[4]
  efficacy on xenograft: no efficacy
[5]
  downstream signaling of PI3K: blocks downstream signaling of PI3K
OCT2
  inhibition of OCT2: inhibitor
CYP1A2 [6]
  inhibition of CYP1A2: low potential for inhibition
[7]
  tumor growth inhibition: strong tumor growth inhibition
CYP2B6 [8]
  induction of CYP2B6 activity: does not induce
Solid tumors; 3CDW cohorts
  subjects with related serious adverse events (SAEs): 7%
Solid tumors; Phase 1 study, intermittent 3CDW schedule
  MTD: 900 mg
Solid tumors; across all doses and regimens
  related adverse event: decreased appetite: 23%
  related adverse event: diarrhea: 31%
  related adverse event: hyperglycemia: 37%
  related adverse event: increased aspartate aminotransferase (AST): 20%
  related adverse event: nausea: 50%
  related adverse event: vomiting: 38%
Solid tumors; dose escalated from 900 mg to 1200 mg, 3CDW regimen
  subjects with gastrointestinal dose-limiting toxicity (DLT): 2 of 3
Solid tumors; human, in vivo
  PK profile: linear PK profile
Solid tumors; prior serabelisib clinical trials
  cases of drug-induced liver injury (DILI): no cases of DILI have been reported
Solid tumors; results from skin biopsy samples
  doses giving biologically active exposures: > 200 mg
A range of cell lines
  antiproliferative activity: demonstrates antiproliferative activity
CYP3A4
  share of metabolism by CYP3A4: 72%
[9]; following oral dosing
  tissue distribution of radiolabeled drug: well distributed to all tissues
[9]; [17]
  absorption: rapid absorption
  bioavailability: high bioavailable
[9]; urine and feces
  excretion: majority of the drug is excreted in urine and feces as the parent compound
CYP2C8
  inhibition of CYP2C8: low potential for inhibition
[10]
  selectivity over other class I PI3K isoforms: > 50 fold
[11]
  inhibition of BCRP: inhibitor
[12]
  unique human metabolite: no unique human metabolite was identified
CYP2C19
  inhibition of CYP2C19: low potential for inhibition
CYP2B6 [13]
  inhibition of CYP2B6: low potential for inhibition
CYP2D6
  inhibition of CYP2D6: low potential for inhibition
[14]
  drug accumulation between dosing cycles: No meaningful drug accumulation
CYP1A2 [15]
  induction of CYP1A2 activity: does not induce
[16]
  inhibition of OCT1: inhibitor

Source: patent US20250082643A1, “COMBINATION THERAPY FOR PIK3CA-ASSOCIATED DISEASES OR DISORDERS” (Faeth Therapeutics, Inc., priority 2021, published 2025)
